Test results reported in patent publication US20260258031A1, “CRYSTALLINE FORMS OF AN ESTROGEN RECEPTOR ANTAGONIST” (Olema Pharmaceuticals, Inc., priority 2022, published 2026).
“And” between values parts separate entries of the source, which are not always exact repeats. Identical values can stand only once. Blank lines part the entries; values can stand above or below the compound they belong to.

Columns and labels:
[1] = Kinetic solubility of Fumarate Form A Ethyl Acetate Solvate, solvent aliquot addition; format: physicochemical; conditions: thermodynamic from solid, ambient temperature
Protocol: The screen consisted primarily of long term slurry experiments. To help design screen experiments, kinetic solubilities of Fumarate Form A Ethyl Acetate Solvate were estimated. The estimation was done on a 3-11 mg scale using a solvent aliquot addition method, and dissolution was judged by visual observation. Solubilities are estimated at ambient temperature and reported to the nearest mg/mL; if complete dissolution was achieved by one aliquot addition, solubilities were reported as “>”;

[2] = co-former acid of salt screen; cited from earlier work
[3] = Solubility in solvents, dynamic method; format: physicochemical; conditions: for solubility at 15 min: organic solvent or mixture, thermodynamic from solid, dynamic method
Protocol: […] Solubility was measured by the dynamic method and gravimetric method.
Dynamic method: Under the condition of a certain amount of solute and certain temperature, solvent was gradually added with stirring for 15 min to reach equilibrium. When solute is completely dissolved, amount of solvent was recorded and the solubility calculated.

[4] = Dynamic vapor sorption (DVS), hygroscopicity; format: physicochemical; conditions: for Hygroscopicity (%), water uptake: 25° C./80% RH
Protocol: DVS was performed using Intrinsic DVS ([…], UK). About 30-50 mg of sample was placed in a sample basked and hung in the measuring chamber. For an isotherm test, the chamber temperature was maintained by a water bath at a constant 25±1° C. The sample was tested at a targeted RH from 0 to 90% full cycle in step mode. The analysis was performed in 10% RH increments. Time duration at each RH was set as 60 min so that the sample could reach equilibrium with the chamber environment. Data were collected in 20 s increments.

[5] = Stability in oven at 60° C. for two weeks (HPLC purity, XRPD); format: physicochemical; conditions: for HPLC Purity (%) 60° C.: after two weeks at 60° C.; for HPLC Purity (%) Starting: before storage; for XRPD change after storage / Stability relative to Amorphous Compound 1: two weeks at 60° C.; for HPLC Purity (%) Degradation: two weeks at 60° C. versus starting
Protocol: Amorphous Compound 1, Compound 1 Fumarate Form E, and Compound 1 Fumarate Form A Anhydrate were placed in an oven at 60° C. for two weeks to evaluate their stability.

[6] = Solubility, gravimetric method; format: physicochemical; conditions: H2O, 25° C.; for solubility: gravimetric method
Protocol: Solubility studies of Compound 1 and Compound 1 Fumarate in different solvents at 25° C. were performed. Solubility was measured by the dynamic method and gravimetric method.
Gravimetric method: Excess solids and a certain amount of solvent were added 8 mL vials, stirred for 24 hours, and filtered.

[7] = Competitive slurry experiments Form E / Form A Anhydrate (XRPD); format: physicochemical; conditions: 25° C. or 40° C.
Protocol: Competitive slurry experiments were performed with Compound 1 Fumarate Form E and Compound 1 Fumarate Form A Anhydrate, as follows:
Experiment #1: Compound 1 Fumarate Form E (100 mg), Compound 1 Fumarate Form A Anhydrate (100 mg), and isopropanol (2 mL) were added into two 8-mL vials and mixed well in a shaker at 25° C. and 40° C., respectively. Samples for analysis were taken at 24 h and 72 h.
Experiment #2: Compound 1 Fumarate Form E (100 mg), Compound 1 Fumarate Form A Anhydrate (100 mg), and water (2 mL) were added into two 8-mL vials and mixed well in a shaker at 25° C. and 40° C., respectively. Samples for analysis were taken at 24 h and 72 h.
Experiment #3: Compound 1 Fumarate Form E (100 mg), Compound 1 Fumarate Form A Anhydrate (100 mg), and ethyl acetate (2 mL) were added into two 8-mL vials and mixed well in a shaker at 25° C. and 40° C., respectively. Samples for analysis were taken at 24 h and 72 h.

[8] = Bulk density (untapped, graduated cylinder); format: physicochemical
Protocol: Bulk density of Compound 1 Fumarate Form E was measured by gently introducing a known sample mass into a graduated cylinder (50 mL), leveling the powder without compacting it, and recording the apparent untapped volume to the nearest graduated unit.

Structure (SMILES): CCCN1CC(Oc2ccc([C@@H]3c4[nH]c5ccccc5c4C[C@@H](C)N3CC(C)(C)F)cc2)C1.O=C(O)/C=C/C(=O)O
- solubility ([1]; aqueous with cosolvent or surfactant or cyclodextrin, IPA/water (50/50)): > 124000 µg/mL
- solubility ([1]; organic solvent or mixture, 2-BuOH): 17000 µg/mL
- solubility ([1]; organic solvent or mixture, 2-MeTHF): 32000 µg/mL
- solubility ([1]; organic solvent or mixture, ACN, re-precipitated after first aliquot): < 2000 µg/mL
- solubility ([1]; organic solvent or mixture, Anisole): < 1000 µg/mL
- solubility ([1]; organic solvent or mixture, DCE): < 9000 µg/mL
- solubility ([1]; organic solvent or mixture, DCE/EtOH (96/4)): ≥ 8000 µg/mL
- solubility ([1]; organic solvent or mixture, Dioxane): > 104000 µg/mL
- solubility ([1]; organic solvent or mixture, IPA): 20000 µg/mL
- solubility ([1]; organic solvent or mixture, MIBK): 4000 µg/mL
- solubility ([1]; organic solvent or mixture, MTBE): 2000 µg/mL
- solubility ([1]; organic solvent or mixture, TFE): > 100000 µg/mL
- solubility ([1]; organic solvent or mixture, t-BuOAc, re-precipitated after first aliquot): 1000 µg/mL

Structure (SMILES): O=C1CC[C@@H](C(=O)O)N1 [(−)-L-Pyroglutamic acid]
- pKa [2]: 3.32

Structure (SMILES): CCCN1CC(Oc2ccc([C@@H]3c4[nH]c5ccccc5c4C[C@@H](C)N3CC(C)(C)F)cc2)C1 [Amorphous Compound 1, (1R,3R)-2-(2-fluoro-2-methylpropyl)-3-methyl-1-(4-((1-propylazetidin-3-yl)oxy)phenyl)-2,3,4,9-tetrahydro-1H-pyrido[3,4-b]indole]
- Solubility in isopropanol (in words) ([3]; 25° C.): high solubility
- Hygroscopicity (%), water uptake [4]: hygroscopic (0.463) %
- Form Change after DVS? [4]: No
- HPLC Purity (%) 60° C. [5]: 98.94%
- HPLC Purity (%) Starting [5]: 99.23%
- XRPD change after storage [5]: No change
- HPLC Purity (%) Degradation [5]: −0.29%

Structure (SMILES): CCCN1CC(Oc2ccc([C@@H]3c4[nH]c5ccccc5c4C[C@@H](C)N3CC(C)(C)F)cc2)C1.O=C(O)/C=C/C(=O)O [Compound 1 Fumarate Form A Anhydrate]
- Hygroscopicity (%), water uptake [4]: hygroscopic (0.108) %
- Form Change after DVS? [4]: No
- HPLC Purity (%) 60° C. [5]: 99.54%
- HPLC Purity (%) Starting [5]: 99.58%
- Stability relative to Amorphous Compound 1 [5]: improved stability
- XRPD change after storage [5]: No change
- HPLC Purity (%) Degradation [5]: −0.04%
- solubility [6]: 6500 µg/mL
- Outcome of competitive slurry (XRPD) ([7]; ethyl acetate, after 72 h): a mixture of Compound 1 Fumarate Form E and Compound 1 Fumarate Form A Anhydrate remained
- Outcome of competitive slurry (XRPD) ([7]; isopropanol, after 24 h): completely transformed into Compound 1 Fumarate Form E
- Outcome of competitive slurry (XRPD) ([7]; water, after 72 h): a mixture of Compound 1 Fumarate Form E and Compound 1 Fumarate Form A Anhydrate remained

Structure (SMILES): O=C(O)CO [Glycolic Acid]
- pKa [2]: 3.28

Structure (SMILES): O=C(O)c1cc2ccccc2c(Cc2c(O)c(C(=O)O)cc3ccccc23)c1O [Pamoic Acid]
- pKa [2]: 2.51

Now from value to compound, other results behind:

- Bulk Density, Average ([8]; average of three runs): 0.1239 g/mL
- Solubility in isopropanol (in words) ([3]; 25° C.): very low solubility
- Change of solubility with increasing proportion of heptane ([3]; isopropanol/heptane, 25° C.): decreased significantly
- solubility at 15 min ([3]; IPA, 0° C.): < 1000 µg/mL
- solubility at 15 min ([3]; IPA, 25° C.): ~8460 µg/mL
- solubility at 15 min ([3]; IPA/heptane (1/1), 25° C.): ~2350 µg/mL
- solubility at 15 min ([3]; IPA/heptane (1/3), 25° C.): < 1000 µg/mL
- solubility at 15 min ([3]; IPA/heptane (5/1), 25° C.): 5890 µg/mL
- solubility at 15 min ([3]; IPA/heptane (5/3), 25° C.): ~3570 µg/mL
- Hygroscopicity by DVS (in words) ([4]; 25° C., 0 to 90% RH cycle): not hygroscopic
- HPLC Purity (%) 60° C. [5]: 99.50%
- HPLC Purity (%) Starting [5]: 99.54%
- Stability relative to Amorphous Compound 1 [5]: improved stability
- XRPD change after storage [5]: No change
- HPLC Purity (%) Degradation [5]: −0.05%
- Solubility compared with Compound 1 Fumarate Form A Anhydrate [6]: much lower solubility
- solubility [6]: 1000 µg/mL
- Outcome of competitive slurry (XRPD) ([7]; isopropanol, after 24 h): more stable than Form A Anhydrate
Structure (SMILES): CCCN1CC(Oc2ccc([C@@H]3c4[nH]c5ccccc5c4C[C@@H](C)N3CC(C)(C)F)cc2)C1.O=C(O)/C=C/C(=O)O [Compound 1 Fumarate Form E]
- Bulk Density ([8]; single runs 1-3, untapped): 0.1288 g/mL and 0.1233 g/mL and 0.1196 g/mL
- Outcome of competitive slurry (XRPD) ([7]; ethyl acetate, after 72 h): a mixture of Compound 1 Fumarate Form E and Compound 1 Fumarate Form A Anhydrate remained
- Outcome of competitive slurry (XRPD) ([7]; water, after 72 h): a mixture of Compound 1 Fumarate Form E and Compound 1 Fumarate Form A Anhydrate remained

- Solubility in isopropanol (in words) ([3]; 25° C.): relatively low solubility
Structure (SMILES): O=C(O)/C=C/C(=O)O [Fumaric acid]
